Measured values from a melting point compilation (Tetko et al.; mined from patent text by program, amines drawn as free bases though some values may be those of a salt).

Compound | melting point [°C]
Cc1ncnn1-c1cc(F)ccc1CNC(=O)c1nc2n(c(=O)c1OCc1ccccc1)CCN2c1ccccc1 | 181
O=C(CCl)Nc1cccc2[nH]ccc12 | 114 to 116
CCCn1nc2c(=O)[nH]c3ccccc3c2c1N | 266 to 268
CCCC(=O)CC1NC(=O)c2ccsc2-n2cccc21 (centres undefined) | 186
CCC(=O)C1=C(O)CC(c2cc3c(cc2[N+](=O)[O-])OCO3)CC1=O (centres undefined) | 139
Fc1cccc(Cl)c1COc1cccnc1NC(=S)Nc1ccccc1 | 143 to 145
CCC(=O)N1CCC(NC(=O)Nc2c(Cl)cccc2Cl)CC1 | 170 to 174
CSc1ncc(CO)c(Nc2ccccc2)n1 | 142 to 143
O=C(O)C1c2ccccc2COc2ccc(Br)cc21 (centres undefined) | 166 to 167
Cc1ncc2c(n1)-c1ccc(Cl)cc1C(c1ccccc1)=NC2 | 120 to 122
CCCCCCC(C)(C)c1ccc(C2(O)CCCNC2)c(O)c1 (centres undefined) | 147
Cc1snnc1SCC1=C(C(=O)OC(C)(C)C)N2C(=O)[C@@H](NC(=O)Cc3cccs3)[C@H]2SC1 | 155 to 157
CC(C)(C)[S@](=O)N1CCC[C@@H]1c1ccc(Cl)cc1 | 80
COC(c1nccs1)(c1nccs1)C(F)(F)F | 40 to 41
COc1ccc(NC2(C#N)CCCCC2)cn1 | 121 to 123
CNC1(c2cccc(NC(=O)c3cc(OC)c(OC)c(OC)c3)c2)NC=Nc2cc(OC)c(OC)cc21 (centres undefined) | 122 to 124
CC#CCOc1ccc(S(=O)(=O)C2(C(=O)NO)CCN(C(C)C)CC2)cc1 | 105
Cn1cc(C#N)nc1-c1ncc[nH]1 | 238 to 239
COc1cc2c(cc1OC)OCC(=O)C2 | 126 to 130
CC(C)(C)C(O)(Cn1cncn1)C1CCCCC1 (centres undefined) | 100 to 102
COC(=O)[C@@H]1C[C@H](OS(C)(=O)=O)C(=O)[C@H]2[C@@]1(C)CC[C@H]1C(=O)O[C@H](c3ccoc3)C[C@]21C | 147 to 150
CN(SC(Cl)(Cl)Cl)S(=O)(=O)C(Cl)=C(Cl)Cl | 57 to 58
COc1cc2c(cc1OCc1ccccc1)CCCN(Cc1cc(OC)c(OC)c(OC)c1)C2=O | 134 to 135
O=C(NCC(O)c1ccccc1)C1CCCCC1 (centres undefined) | 118 to 119
CCC(CC)Nc1c([N+](=O)[O-])cc(C)c(COC(=O)CCl)c1[N+](=O)[O-] | 45 to 48

Compound | melting point [°C]
COC(=O)c1nc(Cl)nc(N)c1Cl | 164 to 166
CC(=O)c1ccc(CNC(=O)c2cccnc2Oc2cccnc2)s1 | 201 to 203
COc1ccc(C=CCN2CCc3nc(N)sc3CC2)cc1 | 155 to 160
NC(=O)c1cccc2c1OC(F)(F)O2 | 130 to 131
COc1ccccc1CNC(=O)c1ccc2nc(N[C@@H]3CCc4ccccc43)ccc2c1 | 168
CSC(Nc1ccc2c(c1)OCO2)=C(C#N)C(=O)C(C)(C)C | 139 to 141
N#Cc1c(N2CCc3ccccc3CC2)nc(CSc2ccccc2)[nH]c1=O | 189 to 194
O=C(C1=C(N2CCCC2)CCC1)c1cccnc1Cl | 102 to 104
OCc1c(C(F)(F)F)n(Cc2ccccc2)c2ccccc12 | 96
CNC(=O)Nc1coc2ccccc2c1=O | 254
OCc1cnn(-c2ccccc2)c1-c1ccccc1 | 147 to 148
CC1(C)Oc2ccc(Br)cc2C(n2ccccc2=O)=C1CBr | 175
C=C1C(=O)N[C@@H](Cc2ccccc2)C(=O)N1Cc1ccccc1 | 124 to 127
Cc1ccc2c(C(=O)NC3CN4CCC3CC4)cnn2c1 (centres undefined) | 142 to 144
CC(=O)c1ccc(C2CCN(C(C)=O)CC2)c(N)c1 | 220 to 222
CC(C)(C)OC(=O)C(CCC(N)=O)N1Cc2c(O)cccc2C1=O (centres undefined) | 198 to 200
O=C(CN1C(=O)C2(COc3cc4c(cc32)CCO4)c2ccccc21)Nc1ccccc1F (centres undefined) | 210 to 212
O=C1OC(=O)c2cnccc21 | 72 to 74
CC(C)=NNc1cc2c(nn1)CCN(C(=O)C1CCC1)C2 | 175 to 178
OCCc1ccc(OCCCCl)cc1 | 49 to 50
O=C1Nc2c(Br)cncc2C1(Br)Br | 250
Cc1ccc(S(=O)(=O)N2CC3=C(CNCC3)C2)cc1 | 201
C#Cc1ccccc1-c1ccc(I)cc1 | 114
COC(C)C(=O)Nc1ccc(C2=NNC(=O)CC2C)cc1 (centres undefined) | 193 to 194

Results, then the molecule that gave them:

melting point [°C] | Compound
78 to 80 | CCc1cn2ccccc2c1S(=O)(=O)c1ccc(OCCCN(C)C(C)c2ccc(OC)c(OC)c2)cc1 (centres undefined)
138 to 139 | O=C(Nc1ccc(C2=CN(C(=O)OCc3ccccc3)CCC2)c(F)c1)OCc1ccccc1
167 to 168 | COc1cc(CNC(=O)c2ccc3n2Cc2ccccc2N(C(=O)COc2ccc(Cl)cc2C)C3)ccc1O
153 to 155 | NC(=O)c1cc2cc(OCC3CO3)ccc2o1 (centres undefined)
> 95 | CCCCC(=O)Nc1ccc(Cl)c(-n2nc(CCCC)c(Cc3ccc(-c4ccccc4S(=O)(=O)NC(=O)c4ccccc4Cl)cc3)c2C(=O)OCC)c1
185 to 187 | C#CCN(Cc1cc2c(=O)[nH]c(CO)nc2cc1Cl)c1ccc(C(=O)OC(C)(C)C)cc1
155 to 157 | CCOC(=O)Cc1ccc(-c2nc(COc3ccc(COc4nn(-c5ccccc5)cc4/C=C/c4coc(CC)n4)cc3OC)c(C)o2)cc1
176 to 178 | COc1ccc(C2=NN(c3ccc(O)cc3)C(=O)C(C)(C)C2)cc1OC
110 to 112 | CCOC(=O)Cc1ccc(-c2ccc3oc(C(=O)OCC)c(C)c3c2)cc1
238 | CCCCc1nc(=O)n2nc(-c3ccc(F)cc3)cc2[nH]1
105 to 109 | Cc1noc(NS(=O)(=O)c2ccccc2-c2ccc(-c3ncco3)cc2CNC=O)c1C
140 to 143 | Cc1ccccc1-c1ccc(C(=O)O)cc1C
88 to 90 | Cc1cc(-c2cc(O)c(SCc3ccccc3)c(=O)o2)cc(C)n1
144 to 147 | O=C(O)c1ccc2[nH]cc(CCCCN3CCCC(Cc4ccccc4)C3)c2c1 (centres undefined)
186 to 187 | O=C(O)c1cc(Br)cc(OCc2ccccc2Cl)c1OCc1ccccc1Cl
162 to 163 | CC(=NOCCOc1ccc(CC2SC(=O)NC2=O)cc1)c1ccc2ccccc2n1 (centres undefined)
126 to 127 | Cc1cc(C)n(-c2nc(-c3ccc(Cl)cc3)c(CCC(=O)N3CCN(CC4CCN(C)CC4)CC3)o2)n1
125 to 127 | CCc1ccc(C(=O)O)c2ccccc12
200 | CC(=O)CC1=C(C#N)C(c2cccc3nonc23)c2c[nH]nc2N1 (centres undefined)
84 to 86 | COC(=O)c1cccc(C(=O)Cc2cccc(Br)n2)c1
204 to 206 | COc1ccc2c(c1)Nc1cccc(S(C)(=O)=O)c1S2
325 to 327 | O=C(O)c1c[nH]c2c(=O)c3cc(Cl)ccc3oc2c1=O
79 to 88 | CCCCN(Cc1ccc(-c2ccccc2-c2nnn[nH]2)cc1)c1ncncc1C(=O)OC(C)OC(=O)c1ccccc1 (centres undefined)
99 to 100 | CCCOc1cc(CC)c(C(=O)OC)c(C(=O)O)c1
181 to 183 | CCc1c(NC(=O)OC(C)(C)C)cccc1NC(=O)c1ccc(Br)cc1
